In patent US11130780B2, “Inhibitors of growth factor activation enzymes” (Washington University, priority 2015, dated 2021):
pKi: −log10 of the molar value. Where two headings read alike, the source gives them in different places. Residues, ends and D or L forms follow the SMILES beside them. *: point of attachment. AMC = Cc1cc(=O)oc2cc(N*)ccc12; Boc = CC(C)(C)OC(=O)*

Key:
matriptase [1] = target: T1, matriptase (Homo sapiens, UniProt Q9Y5Y6); experiment: Km determination of fluorogenic substrate with matriptase; assay type: biochemical
T1 construct: Charles Craik, UCSF (obtained from another laboratory)
T1 sequence (Q9Y5Y6 615-855 limits assumed): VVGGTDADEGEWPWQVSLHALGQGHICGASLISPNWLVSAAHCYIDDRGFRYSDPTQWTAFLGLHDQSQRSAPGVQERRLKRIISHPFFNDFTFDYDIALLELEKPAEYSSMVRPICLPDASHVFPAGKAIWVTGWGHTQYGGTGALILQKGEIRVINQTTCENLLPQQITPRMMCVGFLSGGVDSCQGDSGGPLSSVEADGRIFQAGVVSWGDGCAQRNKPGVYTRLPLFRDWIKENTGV
Protocol: (§1) In black 384 well plates (Corning #3575), 12.5 nM HGFA was mixed with various amounts of Boc-QLR-AMC and 1 nM matriptase and 0.3 nM hepsin were mixed with various amounts of Boc-QAR-AMC. Changes in fluorescence (excitation at 380 nm and emission at 460 nn) were measured at room temperature over time in a Biotek Synergy 2 plate reader (Winnoski, Vt.). Using plots of the mean reaction velocity versus substrate concentration and the Michaelis-Menten enzyme kinetics equation within GraphPad Prism version 6.04 for Windows (GraphPad Software, San Diego, Calif., www.graphpad.com), the reaction Vmax and subsequent Km for each of the substrates were determined.

HGFA [2] = target: T2, HGFA (Homo sapiens, UniProt Q04756); experiment: Km determination of fluorogenic substrate with HGFA; assay type: biochemical
T2 construct: His6 tag (N); seven amino acid spacer and seven amino acid TEV cleavage site (N); Honey Bee melittin signal peptide (N); made in house; host or cells: High 5 insect cells (baculovirus; virus raised in Sf9)
T2 sequence (Q04756 373-655): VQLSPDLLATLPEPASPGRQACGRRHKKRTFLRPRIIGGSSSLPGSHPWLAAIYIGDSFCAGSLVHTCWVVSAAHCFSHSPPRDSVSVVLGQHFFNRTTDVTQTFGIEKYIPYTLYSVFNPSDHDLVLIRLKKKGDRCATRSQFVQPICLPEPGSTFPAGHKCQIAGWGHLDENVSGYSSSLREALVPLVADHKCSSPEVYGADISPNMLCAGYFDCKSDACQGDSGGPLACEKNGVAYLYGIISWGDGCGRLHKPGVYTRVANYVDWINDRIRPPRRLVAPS
Protocol: as §1

HGFA [3] = target: T2, HGFA; experiment: Fluorescent kinetic enzyme inhibitor assay of HGFA; assay type: biochemical; conditions: for pKi: Fluorogenic Assay, read-out: HGFA Ki
In short: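 Recombinant His-tagged HGFA residues 373-655 from insect cells, with substrate at Km. Inhibitors in 11-point dilutions, 0-20 μM final, 2% DMSO, fluorescence (ex 380/em 460 nm) followed over time at room temperature. IC50 from four-parameter fit of mean velocity, average of three experiments.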

Trypsin = Trypsin selectivity assay; assay type: biochemical
thrombin = thrombin (Homo sapiens, UniProt P00734); experiment: Chromogenic kinetic enzyme assay of thrombin; assay type: biochemical
Protocol: (§2) Inhibitors (11-pt serial dilutions, 0-20 μM final concentration) were serially diluted in DMSO (2% DMSO final concentration) and then mixed with recombinant thrombin (0.15 nM final concentration) or Factor Xa (0.35 nM final concentration) in TNC buffer (25 mM Tris, 150 mM NaCl, 5 mM CaCl2, 0.01% TRITON X-100, pH 8) using clear 384 well plates. […] Changes in absorbance at 405 nm were measured over time in a Biotek Synergy 2 plate (Winnoski, Vt.). Using GraphPad Prism version 6.04 software program, (GraphPad Software, San Diego, Calif., www.graphpad.com), a four parameter curve fit was used to determine the inhibitor IC50s from a plot of the mean reaction velocity versus the inhibitor concentration. Ki values were calculated from the IC50 values using the Cheng and Prusoff equation (Ki=IC50/(1+[S]/Km).

Factor Xa = Factor Xa (Homo sapiens, UniProt P00742); experiment: Chromogenic kinetic enzyme assay of Factor Xa; assay type: biochemical
Factor Xa, sequence (P00742 235-488 limits assumed): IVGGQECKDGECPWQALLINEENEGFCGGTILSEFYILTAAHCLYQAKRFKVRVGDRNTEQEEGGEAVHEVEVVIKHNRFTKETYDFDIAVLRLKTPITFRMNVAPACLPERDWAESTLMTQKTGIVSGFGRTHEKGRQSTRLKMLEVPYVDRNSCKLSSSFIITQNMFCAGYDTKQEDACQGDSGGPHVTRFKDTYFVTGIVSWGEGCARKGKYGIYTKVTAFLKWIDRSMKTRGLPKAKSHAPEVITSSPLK
Factor Xa, sequence (P00742 41-179 partner limits assumed): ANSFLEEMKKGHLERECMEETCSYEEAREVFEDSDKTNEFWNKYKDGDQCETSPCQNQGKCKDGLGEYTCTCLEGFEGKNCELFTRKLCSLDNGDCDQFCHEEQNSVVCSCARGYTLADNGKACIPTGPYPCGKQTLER
Protocol: as §2

hepsin = target: T3, hepsin (Homo sapiens, UniProt P05981); experiment: Fluorescent kinetic enzyme inhibitor assay of hepsin; assay type: biochemical; conditions: Table 9.1; Fluorogenic Assay; read-out: Hepsin Ki
T3 construct: purchased R&D Systems 4776-SE-010
T3 sequence (P05981 163-417 limits assumed): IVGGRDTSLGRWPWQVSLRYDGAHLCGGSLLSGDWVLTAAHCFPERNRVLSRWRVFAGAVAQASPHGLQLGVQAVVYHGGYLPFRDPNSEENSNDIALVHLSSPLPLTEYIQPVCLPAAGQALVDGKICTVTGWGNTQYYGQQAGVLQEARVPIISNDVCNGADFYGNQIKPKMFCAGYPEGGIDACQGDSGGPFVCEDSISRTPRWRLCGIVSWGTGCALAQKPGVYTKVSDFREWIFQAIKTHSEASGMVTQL
T3 sequence (P05981 45-162 partner limits assumed): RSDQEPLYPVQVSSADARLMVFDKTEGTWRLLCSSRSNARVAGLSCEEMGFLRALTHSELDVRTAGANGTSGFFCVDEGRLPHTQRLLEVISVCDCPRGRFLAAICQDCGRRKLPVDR
In short: (§3)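 Fluorescence (ex 380/em 460 nm) followed kinetically at room temperature; IC50 from four-parameter fit of mean velocity versus concentration, averaged over three experiments.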

matriptase [4] = target: T1, matriptase; experiment: Fluorescent kinetic enzyme inhibitor assay of matriptase; assay type: biochemical; conditions: Fluorogenic Assay
In short: as §3

MDA-MB-231 cells = experiment: MRC5-mediated migration and invasion of MDA-MB-231 cells through Matrigel; assay type: cell-based, human; conditions: 1 μM, 24 hour
Protocol: MRC5 fibroblasts were plated in the bottom well of a Boyden chamber, and incubated overnight to condition the attractant media. The following day, MDA-MB-231 or T47D cells+/−inhibitors were plated above on Matrigel coated inserts (8.0 μm membrane inserts, 12-well; Corning 3422) and incubated in FBS media overnight. Inhibitors were added to fresh media and then cells were plated above on the inserts. The cells were fixed and stained at the 24 hour time point. The inserts were then removed and mounted on glass plates where the number of migrated cells were imaged and counted at 4 fields per membrane using a light microscope at 20×.

HGFA [5] = target: T4, HGFA (Homo sapiens, UniProt Q04756); experiment: Kinetic parameters of ACC substrates (Table 11.4); assay type: biochemical
T4 sequence (Q04756 408-655 limits assumed): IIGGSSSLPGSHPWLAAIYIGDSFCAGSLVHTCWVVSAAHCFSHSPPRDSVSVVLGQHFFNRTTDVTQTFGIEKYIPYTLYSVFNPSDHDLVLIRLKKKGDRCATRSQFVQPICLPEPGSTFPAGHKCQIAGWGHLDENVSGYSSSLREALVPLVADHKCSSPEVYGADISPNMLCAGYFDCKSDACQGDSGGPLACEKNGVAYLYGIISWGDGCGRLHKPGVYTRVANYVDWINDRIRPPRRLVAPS
T4 sequence (Q04756 373-407 partner limits assumed): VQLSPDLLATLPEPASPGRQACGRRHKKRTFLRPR
Excerpt: Results for MSP-MS profiling for HGFA substrate cleavage and specificity can be seen in FIG. 20 and Tables 11.1-11.4. IceLogo graphs can be seen in FIGS. 21A and 21B.

[6] = Table 6.2, headed Fluorogenic Assay
[7] = Table 6.2, headed Fluorogenic Assay, read-out: Thrombin Ki
[8] = Table 6.2, headed Fluorogenic Assay, read-out: Factor Xa Ki

Compound	pKi (HGFA [3]; Table 6.1)	pKi (Trypsin; [6])	pKi (thrombin; [7])	pKi (Factor Xa; [8])	further results
Cc1cc(=O)oc2cc(NC(=O)[C@H](CCCNC(=N)N)NC(=O)[C@H](C)NC(=O)[C@H](CCC(N)=O)NC(=O)OC(C)(C)C)ccc12 [Boc-QAR-AMC] (Boc-Gln-Ala-Arg-{AMC})					Km (matriptase [1]): 93 µM
Cc1cc(=O)oc2cc(NC(=O)[C@H](CCCNC(=N)N)NC(=O)[C@H](CC(C)C)NC(=O)[C@H](CCC(N)=O)NC(=O)OC(C)(C)C)ccc12 [Boc-QLR-AMC] (Boc-Gln-Leu-Arg-{AMC})					Km (HGFA [2]): 37 µM
N=C(N)c1cccc(C[C@H](NS(=O)(=O)c2ccc3ccccc3c2)C(=O)N2CCN(C(=O)NCc3ccc(Br)cc3)CC2)c1 [Compound 25a, (S)—N-(4-Bromobenzyl)-4-(3-(3-carbamimidoylphenyl)-2-(naphthalene-2-sulfonamido)propanoyl)piperazine-1-carboxamide]					pKi (HGFA [3]; Table 9.1): 4.79; pKi (Trypsin; Table 9.4): 8.66; pKi (thrombin; Table 9.4, read-out: Thrombin Ki): 5.51; pKi (Factor Xa; Table 9.4, read-out: Factor Xa Ki): 5.34; pKi (hepsin): 7.32; pKi (matriptase [4]; Table 9.1): 5.38
CC(=O)N[C@@H](CCCCN)C(=O)N[C@@H](CCC(N)=O)C(=O)N[C@@H](CC(C)C)C(=O)N[C@@H](CCCNC(=N)N)C(=O)c1nc2ccccc2s1 [Compound 7006, Ac-KQLR(SEQ ID NO: 1)-Kbt]	7.52	9.62			fold increase in HGFA potency (HGFA [3]; versus parent compound): 2 fold; pKi (thrombin): < 4.70; pKi (Factor Xa): 6.89
CC(=O)N[C@@H](CO)C(=O)N[C@@H](CCCCN)C(=O)N[C@@H](CC(C)C)C(=O)N[C@@H](CCCNC(=N)N)C(=O)c1nc2ccccc2s1 [Compound 7053, Ac-SKLR(SEQ ID NO: 10)-Kbt]	7.48	9.80			pKi (thrombin): < 4.70; pKi (Factor Xa): 5.72
CC(=O)N[C@@H](CCCCN)C(=O)N[C@@H](CCCNC(=N)N)C(=O)N[C@@H](CC(C)C)C(=O)N[C@@H](CCCNC(=N)N)C(=O)c1nc2ccccc2s1 [Compound 7054, Ac-KRLR(SEQ ID NO: 8)-Kbt]	8.22	9.09	< 4.70	7.04	MRC5-mediated migration and invasion (MDA-MB-231 cells): abrogate
CC(=O)N[C@@H](Cc1ccccc1)C(=O)N[C@@H](CC(C)C)C(=O)N[C@@H](Cc1ccccc1)C(=O)N[C@@H](CCCNC(=N)N)C(=O)c1nc2ccccc2s1 [Compound 7063, Ac-FLFR(SEQ ID NO: 19)-Kbt]	6.94	9.57	< 4.70	7.88	pKi (matriptase [4]; Table 6.1): 8.44
CC(C)C[C@H](NC(=O)[C@H](CCCNC(=N)N)NC(=O)[C@@H](N)Cc1c[nH]c2ccccc12)C(=O)N[C@@H](CCCNC(=N)N)C(=O)c1nc2ccccc2s1 [Compound 7117, H-WRLR(SEQ ID NO: 9)-Kbt]	8.06	9.02	5.31	8.62	
COC(=O)c1ccc(CNC(=O)c2ccc3nc(C(=O)[C@H](CCCNC(=N)N)NC(=O)[C@H](CC(C)C)NC(=O)[C@H](CCCNC(=N)N)NC(=O)[C@H](CCCCN)NC(C)=O)sc3c2)cc1 [Compound 7158, Ac-KRLR(SEQ ID NO: 8)-kbt-Benzyl-4-COOMe]	8.23	10.30	7.68	8.05	
COC(=O)c1cccc(CNC(=O)c2ccc3nc(C(=O)[C@H](CCCNC(=N)N)NC(=O)[C@H](CC(C)C)NC(=O)[C@H](CCCNC(=N)N)NC(=O)[C@H](CCCCN)NC(C)=O)sc3c2)c1 [Compound 7159, Ac-KRLR(SEQ ID NO: 8)-kbt-Benzyl-3-COOMe]	8.11	10.40	7.07	7.85	
N=C(N)NCCC[C@H](NC(=O)[C@H](Cc1ccccc1)NC(=O)OCC1c2ccccc2-c2ccccc21)C(=O)c1nc2ccccc2s1 [Compound 7187-14, Fmoc-FR-kbt]	6.02	7.84	< 5.70	7.55	
Ac-His(3Bom)-Agp-hLeu-Arg-ACC					Km (HGFA [5]): 52.1 µM
